The source of these data is patent publication US12071404B2, “Aza (indole)-, benzothiophene-, and benzofuran-3-sulfonamides” (UCB Pharma GmbH, priority 2016, dated 2024).

Molecules are shown by their SMILES.

In test [1] the target is T1, GPR17 (Homo sapiens, UniProt Q13304). In words: Calcium mobilization functional assay (GPR17 Ca2+ assay). Type of test: cell-based. The arrangement: host or cells: Flp-In T-REx CHO. Particulars: CHO hGPR17 cells, inhibition of 50 nM MDL29,951, Calcium 5 dye, FLIPR; read-out: Ca2+ assay pIC50 (converted). Summed up:
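pIC50 values were fitted with a 4-parameter logistic curve. They reflect test-compound inhibition of cytosolic Ca2+ release evoked by 50 nM MDL29,951, tracked as Calcium 5 fluorescence at room temperature. Cells were CHO Flp-In T-REx stably carrying human GPR17, induced with doxycycline 1 μg/mL for 16-20 h.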
In general terms: Calcium assays in cells follow changes in intracellular calcium, usually with a dye or a luminescent sensor.

The target of test [2] is T1, GPR17. In words: cAMP accumulation functional assay (HTRF, Schild analysis). Type of test: cell-based. Also noted: host or cells: Flp-In T-REx CHO. Particulars: CHO hGPR17 cells, Schild analysis vs MDL29,951, 5 μM forskolin, read-out: cAMP assay pA2 (converted). On the procedure: Flp-In T-REx CHO cells stably expressing human GPR17 receptor (CHO hGPR17) from Evi Kostenis' lab (Bonn University, Germany) were cultured at 37° C. in a humidified atmosphere of 5% CO2. Cells were grown in DMEM with Nutrient Mixture F-12 supplemented with hygromycin B (500 μg/mL) and blasticidin (30 μg/mL). Expression from the Flp-In locus was induced by treatment with doxycycline (1 μg/mL) for 16-20 h prior assays.
GPR17 activation can also recruit Gi-type G-protein signaling, resulting in a decrease of intracellular cyclic adenosine monophosphate (cAMP). Intracellular cAMP changes can be measured using the HTRF cAMP dynamic assay kit from CisBio (Codolet, France). Using homogenous time-resolved fluorescence technology (HTRF), the assay is based on competition between native cAMP produced by cells and cAMP labelled with the dye d2. The tracer binding was determined by an anti-cAMP antibody labeled with cryptate.
CHO hGPR17 were detached with PBS containing EDTA and dispatched in black 384-well plates with 5,000 cells per well. Cells were first incubated for 30 minutes at room temperature in HBSS Hepes (pH 7.4) containing vehicle or varying concentrations of test GPR17 antagonist/inverse agonist compounds. […] After 60 minutes incubation at room temperature, the reaction is terminated and the cells lysed by adding the d2 detection reagent and the cryptate reagent in 10 μL lysis buffer each according to manufacturer's instructions. After 60 minutes incubation, changes in cAMP concentrations are measured according to manufacturer's instructions using an Envision plate reader with laser excitation. All incubations were performed in duplicate. Data was analyzed using GraphPad Prism software using the 4-parameter logistic equation to measure MDL29,951 pEC50s in absence and presence of GPR17 antagonist/inverse agonist test compounds. Dose ratio (DR) were plotted against antagonist concentrations and Schild analysis provided estimated affinity pA2 of GPR17 antagonist/inverse agonist test compounds.
The activities of the Example compounds tested are depicted in the table below. The activity ranges A, B and C refer to pA2 values in the cAMP assay as follows: “A”: pA2<7.5, “B”: pA2 7.5<x≤8.5, “C”: pA2>8.5.
Background: Changes in cAMP serve as a functional read-out for many G protein-coupled receptors.

T1 sequence (Q13304 whole entry): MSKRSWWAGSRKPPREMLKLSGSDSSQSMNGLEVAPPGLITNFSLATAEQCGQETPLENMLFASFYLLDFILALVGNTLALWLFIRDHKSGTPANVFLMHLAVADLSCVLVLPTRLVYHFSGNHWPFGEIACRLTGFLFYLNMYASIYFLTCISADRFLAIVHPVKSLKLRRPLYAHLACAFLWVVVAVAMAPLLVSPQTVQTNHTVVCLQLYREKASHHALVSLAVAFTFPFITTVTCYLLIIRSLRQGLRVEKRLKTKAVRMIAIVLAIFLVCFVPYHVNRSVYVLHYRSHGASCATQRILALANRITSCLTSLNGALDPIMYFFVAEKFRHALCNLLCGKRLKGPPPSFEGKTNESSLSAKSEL

`O=S(=O)(Nc1cc(Cl)ccc1F)c1c[nH]c2cc(Cl)ccc12` [Compound I-4, 6-chloro-N-(5-chloro-2-fluorophenyl)-1H-indole-3-sulfonamide]: on GPR17 [1], the IC50 is greater than 31.6 nM. Moreover, the Kb on GPR17 [2] is 3.16 to 31.6 nM.
In the same order, the values of `O=C1OCc2ccc(NS(=O)(=O)c3c[nH]c4cc(Cl)ccc34)cc21` [Compound I-8, 6-chloro-N-(3-oxo-1,3-dihydro-2-benzofuran-5-yl)-1H-indole-3-sulfonamide] are greater than 31.6 nM and greater than 31.6 nM.
Turning to `O=S(=O)(Nc1cc(F)ccc1F)c1c[nH]c2cc(Cl)ccc12` [Compound I-9, 6-chloro-N-(2,5-difluorophenyl)-1H-indole-3-sulfonamide], the IC50 on GPR17 [1] is 3.16 to 31.6 nM. The Kb at GPR17 [2] is 3.16 to 31.6 nM.
As to `N#Cc1ccc(NS(=O)(=O)c2c[nH]c3cc(Cl)ccc23)cc1` [Compound I-12, 6-chloro-N-(4-cyanophenyl)-1H-indole-3-sulfonamide], the IC50 at GPR17 [1] is less than 3.16 nM. The Kb on GPR17 [2] is 3.16 to 31.6 nM.
On the same counts, the results for `CS(=O)(=O)c1ccc2c(S(=O)(=O)Nc3ccc(C#N)cc3)c[nH]c2c1` [Compound I-14, N-(4-cyanophenyl)-6-(methylsulfonyl)-1H-indole-3-sulfonamide] are 3.16 to 31.6 nM and 3.16 to 31.6 nM.
In the same order, the values of `O=S(=O)(Nc1ccc(Cl)cc1)c1c[nH]c2cc(Cl)ccc12` [Compound I-24, 6-chloro-N-(4-chlorophenyl)-1H-indole-3-sulfonamide] are greater than 31.6 nM and greater than 31.6 nM.
Take `O=S(=O)(Nc1cccc2c1OCO2)c1c[nH]c2cc(Cl)ccc12` [Compound I-25, N-(1,3-benzodioxol-4-yl)-6-chloro-1H-indole-3-sulfonamide]: at GPR17 [1], the IC50 was less than 3.16 nM. Further, the Kb on GPR17 [2] is 3.16 to 31.6 nM.
In the same order, the values of `O=[N+]([O-])c1ccc(NS(=O)(=O)c2c[nH]c3cc(Cl)ccc23)cc1` [Compound I-39, 6-chloro-N-(4-nitrophenyl)-1H-indole-3-sulfonamide] are 3.16 to 31.6 nM and greater than 31.6 nM.
In the same order, the values of `O=S(=O)(Nc1ccc(I)cc1F)c1c[nH]c2cc3c(cc12)OCO3` [Compound I-44, N-(2-fluoro-4-iodophenyl)-5H-[1,3]dioxolo[4,5-f]indole-7-sulfonamide] are greater than 31.6 nM and 3.16 to 31.6 nM.
Consider `CS(=O)(=O)c1ccc2c(S(=O)(=O)Nc3ccc(I)cc3F)c[nH]c2c1` [Compound I-48, N-(2-fluoro-4-iodophenyl)-6-(methylsulfonyl)-1H-indole-3-sulfonamide], for which the IC50 on GPR17 [1] was 3.16 to 31.6 nM. Also, at GPR17 [2], the Kb was 3.16 to 31.6 nM.
`O=S(=O)(Nc1ccc(I)cc1F)c1c[nH]c2cc(F)ccc12` [Compound I-49, 6-fluoro-N-(2-fluoro-4-iodophenyl)-1H-indole-3-sulfonamide]: on GPR17 [1], the IC50 was greater than 31.6 nM. The Kb on GPR17 [2] was 3.16 to 31.6 nM.
For the compound `CS(=O)(=O)c1ccc2c(S(=O)(=O)Nc3ccc(Cl)cc3F)c[nH]c2c1` [Compound I-50, N-(4-chloro-2-fluorophenyl)-6-(methylsulfonyl)-1H-indole-3-sulfonamide], the IC50 on GPR17 [1] was 3.16 to 31.6 nM. The Kb on GPR17 [2] was 3.16 to 31.6 nM.
For `O=S(=O)(Nc1cc(F)c(F)cc1F)c1c[nH]c2c1ccc1ccccc12` [Compound I-52, N-(2,4,5-trifluorophenyl)-1H-benzo[g]indole-3-sulfonamide], on GPR17 [1], the IC50 is greater than 31.6 nM. Moreover, at GPR17 [2], the Kb is 3.16 to 31.6 nM.
On the same counts, the results for `O=S(=O)(Nc1cc(F)cc(F)c1Cl)c1c[nH]c2cc(Cl)ccc12` [Compound I-55, 6-chloro-N-(2-chloro-3,5-difluorophenyl)-1H-indole-3-sulfonamide] are 3.16 to 31.6 nM and 3.16 to 31.6 nM.
On to `Cc1ccc(NS(=O)(=O)c2c[nH]c3cc(Cl)ccc23)c(F)c1` [Compound I-56, 6-chloro-N-(2-fluoro-4-methylphenyl)-1H-indole-3-sulfonamide], for which the IC50 on GPR17 [1] was greater than 31.6 nM. Further, the Kb on GPR17 [2] is 3.16 to 31.6 nM.
In the same order, the values of `Cc1ccnc(NS(=O)(=O)c2c[nH]c3cc(Cl)ccc23)c1` [Compound I-59] are greater than 31.6 nM and greater than 31.6 nM.
In the same order, the values of `COc1cc(NS(=O)(=O)c2c[nH]c3cc(Cl)ccc23)ncc1Cl` [Compound I-60, 6-chloro-N-(5-chloro-4-methoxypyridin-2-yl)-1H-indole-3-sulfonamide] are greater than 31.6 nM and greater than 31.6 nM.
In the same order, the values of `O=S(=O)(Nc1ccc(Cl)cn1)c1c[nH]c2cc(Cl)ccc12` [Compound I-63, 6-chloro-N-(5-chloropyridin-2-yl)-1H-indole-3-sulfonamide] are greater than 31.6 nM and 3.16 to 31.6 nM.
On to `O=S(=O)(Nc1ccc(Cl)cc1F)c1c[nH]c2c1ccc1cccnc12` [Compound I-65, N-(4-chloro-2-fluorophenyl)-1H-pyrrolo[3,2-h]quinoline-3-sulfonamide], for which the IC50 on GPR17 [1] was 3.16 to 31.6 nM. Moreover, the Kb at GPR17 [2] was 3.16 to 31.6 nM.
As for `O=S(=O)(Nc1cccc2c1OC(F)(F)O2)c1c[nH]c2c1ccc1cccnc12` [Compound I-66, N-(2,2-difluoro-1,3-benzodioxol-4-yl)-1H-pyrrolo[3,2-h]quinoline-3-sulfonamide], the IC50 on GPR17 [1] was 3.16 to 31.6 nM. In addition, the Kb on GPR17 [2] is 3.16 to 31.6 nM.
Turning to `O=S(=O)(Nc1cc(F)c(F)cc1F)c1c[nH]c2c1ccc1cccnc12` [Compound I-67, N-(2,4,5-trifluorophenyl)-1H-pyrrolo[3,2-h]quinoline-3-sulfonamide], on GPR17 [1], the IC50 was 3.16 to 31.6 nM. The Kb at GPR17 [2] is 3.16 to 31.6 nM.
Turning to `COc1ccc2c(S(=O)(=O)Nc3ccc(Cl)cc3F)c[nH]c2c1` [Compound I-69, N-(4-chloro-2-fluorophenyl)-6-methoxy-1H-indole-3-sulfonamide], the IC50 at GPR17 [1] was greater than 31.6 nM. In addition, the Kb at GPR17 [2] was greater than 31.6 nM.
On to `O=S(=O)(Nc1cccc2nsnc12)c1c[nH]c2c1ccc1cccnc12` [Compound I-73, N-(2,1,3-benzothiadiazol-4-yl)-1H-pyrrolo[3,2-h]quinoline-3-sulfonamide], for which the IC50 at GPR17 [1] is 3.16 to 31.6 nM. In addition, the Kb at GPR17 [2] was less than 3.16 nM.
On the same counts, the results for `N#Cc1ccc2c(S(=O)(=O)Nc3ccc(Cl)cc3F)c[nH]c2c1` [Compound I-76, N-(4-chloro-2-fluorophenyl)-6-cyano-1H-indole-3-sulfonamide] are greater than 31.6 nM and greater than 31.6 nM.
On the same counts, the results for `O=S(=O)(Nc1cccc2nsnc12)c1c[nH]c2nc(Br)ccc12` [Compound I-78, N-(2,1,3-benzothiadiazol-4-yl)-6-bromo-1H-pyrrolo[2,3-b]pyridine-3-sulfonamide] are less than 3.16 nM and 3.16 to 31.6 nM.
In the same order, the values of `N#Cc1ccc(NS(=O)(=O)c2c[nH]c3ncc(I)cc23)cc1` [Compound I-79, N-(4-cyanophenyl)-5-iodo-1H-pyrrolo[2,3-b]pyridine-3-sulfonamide] are 3.16 to 31.6 nM and greater than 31.6 nM.
As for `N#Cc1ccc(NS(=O)(=O)c2c[nH]c3nc(Br)ccc23)cc1` [Compound I-80, 6-bromo-N-(4-cyanophenyl)-1H-pyrrolo[2,3-b]pyridine-3-sulfonamide], the IC50 on GPR17 [1] is less than 3.16 nM. For the same compound, the Kb on GPR17 [2] was 3.16 to 31.6 nM.
For the compound `O=S(=O)(Nc1cccc(F)c1Cl)c1c[nH]c2nc(Br)ccc12` [Compound I-83, 6-bromo-N-(2-chloro-3-fluoorphenyl)-1H-pyrrolo[2,3-b]pyridine-3-sulfonamide], the IC50 on GPR17 [1] is 3.16 to 31.6 nM. Besides, at GPR17 [2], the Kb was 3.16 to 31.6 nM.
Regarding `C#Cc1ccc(NS(=O)(=O)c2c[nH]c3nc(Br)ccc23)cc1` [Compound I-85, 6-bromo-N-(4-ethynylphenyl)-1H-pyrrolo[2,3-b]pyridine-3-sulfonamide], the IC50 at GPR17 [1] is 3.16 to 31.6 nM. For the same compound, the Kb on GPR17 [2] was 3.16 to 31.6 nM.
Regarding `O=S(=O)(Nc1cc(F)ccc1F)c1c[nH]c2nc(Br)ccc12` [Compound I-88, 6-bromo-N-(2,5-difluorophenyl)-1H-pyrrolo[2,3-b]pyridine-3-sulfonamide], the IC50 on GPR17 [1] is 3.16 to 31.6 nM. Also, the Kb on GPR17 [2] was 3.16 to 31.6 nM.
As for `O=S(=O)(Nc1cc(F)ccc1F)c1c[nH]c2nc(Cl)ccc12` [Compound I-90, 6-chloro-N-(2,5-difluorophenyl)-1H-pyrrolo[2,3-b]pyridine-3-sulfonamide], at GPR17 [1], the IC50 was greater than 31.6 nM. For the same compound, at GPR17 [2], the Kb was greater than 31.6 nM.
